Assay results published in patent publication US11771660B2, “Flavonoid polyphenol drug self-emulsifying composition, preparation method therefor, pharmaceutical composition thereof and application thereof” (priority 2019, dated 2023).

Experiments:
[1] = Plasma pharmacokinetics after gavage in rats; type: in vivo, Sprague-Dawley rats; details: gavage 40 mg/kg
Description: Test group B: The self-emulsifying composition of baicalein encapsulating baicalein ingredient in Comparative Example 1 (hereinafter labeled OBA-SMEDDS) was administered.
Test group C: Baicalein ingredient (hereinafter labeled BA) was administered.
Sprague-Dawley rats (male, 200 g) were fed for one week before tests, forbidden to eat rather than drink the night before the tests, and supplied with water freely during the tests.
15 rats were randomly divided into three groups (test group A, test group B and test group C, separately), with 5 rats in each group. Gavage (2-3 mL) was provided at a dose of 40 mg/kg. 0.3 mL of blood was taken from the retro-orbital venous plexus at 5, 15, 30, 45, 60 and 75 min and 3, 6, 8, 10, 12 and 24 h after administration, placed in a pre-heparinized 1.5 mL conical centrifuge tube, and centrifuged at 4000 r/min for 15 min. The upper plasma was aspirated, stored in the refrigerator at −80° C., and thawed at normal temperature before determination.
Treatment of plasma samples: 100 μL of plasma was taken, placed in a 1.5 mL conical centrifuge tube, added with 10 μL of ascorbic acid (200 mg/mL), 20 μL of an internal standard solution (500 ng/ml) and 300 μL of methanol, vortexed for 60 s, and centrifuged at 12000 r/min for 10 min. Then, the supernatant was aspirated, placed in a centrifuge tube, concentrated through centrifugation to remove the solvent (40° C.), added with 200 μL of methanol:water (80:20) to be dissolved, vortexed for 30 s, and centrifuged at 12000 r/min for 5 min. 20 μL of the supernatant was injected and the plasma concentration was determined under the following chromatography conditions (liquid chromatography-mass spectrometry).
Chromatography column: Agilent ZORBAX SB C18 column (250 mm×4.6 mm, […]);
Column temperature: 25° C.;
Mobile phase (gradient elution, see Table 11): acetonitrile-0.1% formic acid as an eluent.
Electrospray ion source (ESI), positive ion mode, multiple reaction monitoring (MRM);
Other parameters: an atomizer pressure of 40 psi, a drying gas flowrate of 9 L/min, a drying gas temperature of 350° C., a capillary voltage of 4000V and a split ratio of 1:2.
MRM detection ion pair for quantification: baicalin [M+H]+ 447.0→271.1;

[2] = Saturated solubility in oil phase and blank self-emulsifying concentrate; type: physicochemical; details: room temperature 24 hours
Description: They were placed at room temperature for 24 hours to observe whether the drug was precipitated. If no drug was precipitated, an appropriate amount of each phospholipid complex was added and operated in the same manner until the drug was precipitated. The supernatant was taken and centrifuged at 12000 r/min for 20 min. Then, the supernatant was taken and the saturated solubility of each flavonoid polyphenol drug-phospholipid complex in the oil phase and the blank self-emulsifying concentrate was determined by the preceding HPLC method.

[3] = male, Sprague-Dawley, rat, po, baicalein in plasma

In the case of `O=c1cc(-c2ccccc2)oc2cc(O)c(O)c(O)c12` [BA, baicalein], the “AUC (0-t)” value ([1]; baicalein in plasma) is reported as 15864.8 µg·min/L, the “AUC (0-∞)” value ([1]; baicalein in plasma) is reported as 15880.4 µg·min/L and the Cmax [1, 3] is reported as 99.1 ± 42 ng/mL. It also gave a Tmax [1, 3] of 1.25 h, an MRT last ([1]; male, Sprague-Dawley, rat, po, baicalein in plasma, read-out: MRT (0-t) (converted)) of 4 h and an MRT inf ([1]; male, Sprague-Dawley, rat, po, baicalein in plasma, read-out: MRT (0-∞) (converted)) of 4.01 h. For the same molecule, the bioavailability ([1]; male, Sprague-Dawley, rat, po, relative to baicalein ingredient, based on baicalein in plasma) was 100%, the “saturated solubility in the blank self-emulsifying concentrate (drug load of the self-emulsifying composition)” value ([2]; ethyl oleate:labraosol:transcutol HP 2:5:3) was 20 mg/g and the “saturated solubility in oil” value ([2]; oil phase ethyl oleate) was 0.3 mg/g.
